{
  "source": "paper PMC9097471",
  "about": "“Development of Selective Phosphatidylinositol 5-Phosphate 4-Kinase γ Inhibitors with a Non-ATP-competitive, Allosteric Binding Mode” (Journal of Medicinal Chemistry, 2022)",
  "key": {"[1]": {"biological_target": "T1, PI5P4Kβ (Homo sapiens, UniProt P78356)", "T1 sequence (P78356 1-416)": "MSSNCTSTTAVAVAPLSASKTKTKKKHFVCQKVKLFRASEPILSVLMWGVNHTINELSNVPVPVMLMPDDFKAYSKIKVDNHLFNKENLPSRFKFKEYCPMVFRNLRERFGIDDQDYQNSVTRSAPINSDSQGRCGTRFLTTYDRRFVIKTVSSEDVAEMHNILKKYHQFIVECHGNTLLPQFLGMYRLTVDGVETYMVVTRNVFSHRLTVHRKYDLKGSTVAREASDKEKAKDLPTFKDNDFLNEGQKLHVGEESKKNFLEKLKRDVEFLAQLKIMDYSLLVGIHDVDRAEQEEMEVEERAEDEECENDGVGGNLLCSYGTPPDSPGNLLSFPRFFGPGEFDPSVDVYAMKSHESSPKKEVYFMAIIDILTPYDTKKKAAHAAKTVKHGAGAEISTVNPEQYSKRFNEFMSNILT", "design": "method as in ref 30 (a number printed in a supplementary file, which may have a reference list of its own: not looked up in the article's list)", "conditions": "32P-ATP/PI5P incorporation, showed 'small but significant stimulation'; cited from earlier work"}, "[2]": {"biological_target": "T1, PI5P4Kβ", "assay": "Thermal shift assay", "conditions": "read-out: ΔTm PI5P4Kβ, thermal shift, compound 63 μM"}, "[3]": {"biological_target": "PI5P4Kγ+ (Homo sapiens, UniProt Q8TBX8, D138G/D197E/E133P/E135D/E153T/E196G/G136S/G139A/N195G/S132L/S134N)", "sequence (Q8TBX8 with tags, fused parts or gaps with the stated changes)": "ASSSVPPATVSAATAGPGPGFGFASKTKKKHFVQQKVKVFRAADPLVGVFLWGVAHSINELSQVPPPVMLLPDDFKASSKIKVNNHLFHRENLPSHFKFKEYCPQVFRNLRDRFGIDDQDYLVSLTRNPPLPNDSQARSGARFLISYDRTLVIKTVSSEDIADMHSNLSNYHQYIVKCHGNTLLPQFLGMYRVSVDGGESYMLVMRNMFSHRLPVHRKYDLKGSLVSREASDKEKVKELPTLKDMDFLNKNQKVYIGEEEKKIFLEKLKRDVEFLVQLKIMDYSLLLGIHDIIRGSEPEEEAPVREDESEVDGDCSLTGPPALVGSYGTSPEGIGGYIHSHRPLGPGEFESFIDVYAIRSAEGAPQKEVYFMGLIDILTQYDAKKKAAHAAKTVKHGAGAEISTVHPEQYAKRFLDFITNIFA", "assay": "Thermal shift assay", "conditions": "read-out: ΔTm PI5P4Kγ+"}, "[4]": {"biological_target": "SGK1 (Homo sapiens, UniProt O00141)", "assay": "Kinase panel, radiometric 33P filter binding", "conditions": "read-out: % activity remaining", "description": "(§1) filter binding assay using 33P-g-ATPat the MRC PPU International Centre for Kinase Profiling, University of"}, "[5]": {"biological_target": "S6K1 (Homo sapiens, UniProt P23443)", "assay": "Kinase panel, radiometric 33P filter binding", "conditions": "read-out: % activity remaining", "description": "as §1"}, "[6]": {"biological_target": "PKA (Homo sapiens, UniProt P17612)", "assay": "Kinase panel, radiometric 33P filter binding", "conditions": "read-out: % activity remaining", "description": "as §1"}, "[7]": {"biological_target": "STK33 (Homo sapiens, UniProt Q9BYT3)", "sequence (Q9BYT3 whole entry)": "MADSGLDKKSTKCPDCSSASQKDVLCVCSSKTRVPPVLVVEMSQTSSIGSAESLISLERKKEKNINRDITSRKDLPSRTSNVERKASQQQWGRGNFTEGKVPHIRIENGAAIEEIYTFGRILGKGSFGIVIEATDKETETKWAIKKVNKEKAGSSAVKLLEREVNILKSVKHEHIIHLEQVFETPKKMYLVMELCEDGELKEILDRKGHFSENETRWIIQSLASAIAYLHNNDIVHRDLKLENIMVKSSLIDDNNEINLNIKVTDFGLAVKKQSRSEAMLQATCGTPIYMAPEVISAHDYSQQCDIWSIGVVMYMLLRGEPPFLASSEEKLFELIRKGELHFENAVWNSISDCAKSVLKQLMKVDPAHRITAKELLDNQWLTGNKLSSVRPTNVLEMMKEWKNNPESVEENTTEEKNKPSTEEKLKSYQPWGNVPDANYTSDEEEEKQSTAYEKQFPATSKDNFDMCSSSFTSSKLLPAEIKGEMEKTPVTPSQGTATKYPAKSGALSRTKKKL", "assay": "Kinase panel, radiometric 33P filter binding", "conditions": "read-out: % activity remaining", "description": "as §1"}, "[8]": {"biological_target": "MNK1 (Homo sapiens, UniProt Q9BUB5)", "assay": "Kinase panel, radiometric 33P filter binding", "conditions": "read-out: % activity remaining"}, "[9]": {"biological_target": "MAPKAP-K3 (Homo sapiens, UniProt Q16644)", "sequence (Q16644 whole entry)": "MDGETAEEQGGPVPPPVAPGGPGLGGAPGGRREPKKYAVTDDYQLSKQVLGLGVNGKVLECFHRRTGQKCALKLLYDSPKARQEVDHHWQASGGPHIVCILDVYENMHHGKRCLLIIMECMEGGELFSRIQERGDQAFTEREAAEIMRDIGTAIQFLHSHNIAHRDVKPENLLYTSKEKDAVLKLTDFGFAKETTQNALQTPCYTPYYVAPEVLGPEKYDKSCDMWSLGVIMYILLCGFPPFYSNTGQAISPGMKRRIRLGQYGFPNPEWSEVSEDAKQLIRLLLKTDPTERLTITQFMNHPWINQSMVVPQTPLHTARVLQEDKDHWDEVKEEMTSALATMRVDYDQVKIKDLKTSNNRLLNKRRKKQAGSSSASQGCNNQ", "assay": "Kinase panel, radiometric 33P filter binding", "conditions": "read-out: % activity remaining"}, "[10]": {"biological_target": "PRAK (Homo sapiens, UniProt Q8IW41)", "sequence (Q8IW41 whole entry)": "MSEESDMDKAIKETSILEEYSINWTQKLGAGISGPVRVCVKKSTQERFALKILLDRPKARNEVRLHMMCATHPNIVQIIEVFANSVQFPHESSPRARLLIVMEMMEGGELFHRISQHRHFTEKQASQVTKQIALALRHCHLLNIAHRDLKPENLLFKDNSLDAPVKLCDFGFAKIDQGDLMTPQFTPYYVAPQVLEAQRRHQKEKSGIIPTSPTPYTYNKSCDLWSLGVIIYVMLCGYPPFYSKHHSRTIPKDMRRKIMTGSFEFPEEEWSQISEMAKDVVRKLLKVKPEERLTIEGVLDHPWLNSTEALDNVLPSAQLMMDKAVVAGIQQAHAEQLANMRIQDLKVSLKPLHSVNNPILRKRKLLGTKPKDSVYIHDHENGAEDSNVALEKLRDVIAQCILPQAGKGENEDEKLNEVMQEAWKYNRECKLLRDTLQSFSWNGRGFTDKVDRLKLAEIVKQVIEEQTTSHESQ", "assay": "Kinase panel, radiometric 33P filter binding", "conditions": "read-out: % activity remaining", "description": "as §1"}, "[11]": {"biological_target": "PHK (Homo sapiens, UniProt Q16816)", "assay": "Kinase panel, radiometric 33P filter binding", "conditions": "read-out: % activity remaining", "description": "as §1"}, "[12]": {"biological_target": "GSK3b (Homo sapiens, UniProt P49841)", "assay": "Kinase panel, radiometric 33P filter binding", "conditions": "read-out: % activity remaining", "description": "as §1"}, "[13]": {"biological_target": "AMPK (hum) (Homo sapiens, UniProt Q13131)", "assay": "Kinase panel, radiometric 33P filter binding", "conditions": "read-out: % activity remaining", "description": "as §1"}, "[14]": {"biological_target": "MARK1 (Homo sapiens, UniProt Q9P0L2)", "sequence (Q9P0L2 whole entry)": "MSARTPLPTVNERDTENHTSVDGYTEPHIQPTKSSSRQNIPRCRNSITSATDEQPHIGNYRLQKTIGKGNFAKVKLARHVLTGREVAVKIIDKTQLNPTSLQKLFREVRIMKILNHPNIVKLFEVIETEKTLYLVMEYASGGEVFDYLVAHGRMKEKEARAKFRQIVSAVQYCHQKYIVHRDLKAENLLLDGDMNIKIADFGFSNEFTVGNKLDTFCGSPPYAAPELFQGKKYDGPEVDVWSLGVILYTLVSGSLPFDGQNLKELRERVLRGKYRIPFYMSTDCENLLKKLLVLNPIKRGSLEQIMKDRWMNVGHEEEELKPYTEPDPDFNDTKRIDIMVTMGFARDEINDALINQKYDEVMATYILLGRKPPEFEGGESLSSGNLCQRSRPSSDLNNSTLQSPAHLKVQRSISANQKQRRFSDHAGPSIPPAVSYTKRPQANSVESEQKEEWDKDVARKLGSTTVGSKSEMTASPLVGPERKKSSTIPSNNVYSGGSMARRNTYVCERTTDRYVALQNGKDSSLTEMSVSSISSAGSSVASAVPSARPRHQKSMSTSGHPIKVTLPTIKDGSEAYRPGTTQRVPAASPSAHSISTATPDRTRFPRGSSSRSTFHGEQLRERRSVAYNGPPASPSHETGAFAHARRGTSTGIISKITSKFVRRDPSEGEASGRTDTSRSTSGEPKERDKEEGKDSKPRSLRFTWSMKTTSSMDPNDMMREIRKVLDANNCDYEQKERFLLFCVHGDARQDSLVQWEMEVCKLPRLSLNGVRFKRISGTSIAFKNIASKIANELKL", "assay": "Kinase panel, radiometric 33P filter binding", "conditions": "read-out: % activity remaining", "description": "as §1"}, "[15]": {"biological_target": "SIK2 (Homo sapiens, UniProt Q9H0K1)", "assay": "Kinase panel, radiometric 33P filter binding", "conditions": "read-out: % activity remaining", "description": "as §1\nKinase % activity remaining s.d."}, "[16]": {"biological_target": "DYRK1A (Homo sapiens, UniProt Q13627)", "assay": "Kinase panel, radiometric 33P filter binding", "conditions": "read-out: % activity remaining", "description": "as §1"}, "[17]": {"biological_target": "NEK6 (Homo sapiens, UniProt Q9HC98)", "assay": "Kinase panel, radiometric 33P filter binding", "conditions": "read-out: % activity remaining", "description": "as §1\nKinase % activity remaining s.d."}, "[18]": {"biological_target": "IKKe (Homo sapiens, UniProt Q14164)", "assay": "Kinase panel, radiometric 33P filter binding", "conditions": "read-out: % activity remaining", "description": "as §1\nKinase % activity remaining s.d."}, "[19]": {"biological_target": "SRPK1 (Homo sapiens, UniProt Q96SB4)", "assay": "Kinase panel, radiometric 33P filter binding", "conditions": "read-out: % activity remaining", "description": "as §1"}, "[20]": {"biological_target": "PAK4 (Homo sapiens, UniProt O96013)", "assay": "Kinase panel, radiometric 33P filter binding", "conditions": "read-out: % activity remaining", "description": "as §1"}, "[21]": {"biological_target": "MST2 (Homo sapiens, UniProt Q13188)", "assay": "Kinase panel, radiometric 33P filter binding", "conditions": "read-out: % activity remaining"}, "[22]": {"biological_target": "MST4 (Homo sapiens, UniProt Q9P289)", "sequence (Q9P289 whole entry)": "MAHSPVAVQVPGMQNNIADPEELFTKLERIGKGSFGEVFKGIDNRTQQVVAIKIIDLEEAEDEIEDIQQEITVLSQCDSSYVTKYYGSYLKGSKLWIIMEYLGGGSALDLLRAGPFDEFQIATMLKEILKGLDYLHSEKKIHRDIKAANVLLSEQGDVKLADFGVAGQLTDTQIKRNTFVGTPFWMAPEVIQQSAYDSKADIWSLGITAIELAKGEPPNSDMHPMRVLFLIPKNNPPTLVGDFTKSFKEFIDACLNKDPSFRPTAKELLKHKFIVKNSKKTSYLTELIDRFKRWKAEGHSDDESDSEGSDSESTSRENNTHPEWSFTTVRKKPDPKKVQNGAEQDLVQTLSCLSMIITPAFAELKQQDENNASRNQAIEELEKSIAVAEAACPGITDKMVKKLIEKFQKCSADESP", "assay": "Kinase panel, radiometric 33P filter binding", "conditions": "read-out: % activity remaining"}, "[23]": {"biological_target": "MEKK1 (Homo sapiens, UniProt Q13233)", "assay": "Kinase panel, radiometric 33P filter binding", "conditions": "read-out: % activity remaining", "description": "as §1"}, "[24]": {"biological_target": "MLK3 (Homo sapiens, UniProt Q16584)", "assay": "Kinase panel, radiometric 33P filter binding", "conditions": "read-out: % activity remaining", "description": "as §1"}, "[25]": {"biological_target": "TESK1 (Homo sapiens, UniProt Q15569)", "assay": "Kinase panel, radiometric 33P filter binding", "conditions": "read-out: % activity remaining", "description": "as §1"}, "[26]": {"biological_target": "RIPK2 (Homo sapiens, UniProt O43353)", "assay": "Kinase panel, radiometric 33P filter binding", "conditions": "read-out: % activity remaining"}, "[27]": {"biological_target": "TTK (Homo sapiens, UniProt P33981)", "assay": "Kinase panel, radiometric 33P filter binding", "conditions": "read-out: % activity remaining", "description": "as §1"}, "[28]": {"biological_target": "MPSK1 (Homo sapiens, UniProt O75716)", "assay": "Kinase panel, radiometric 33P filter binding", "conditions": "read-out: % activity remaining", "description": "as §1"}, "[29]": {"biological_target": "EPH-A2 (Homo sapiens, UniProt P29317)", "sequence (P29317 24-976)": "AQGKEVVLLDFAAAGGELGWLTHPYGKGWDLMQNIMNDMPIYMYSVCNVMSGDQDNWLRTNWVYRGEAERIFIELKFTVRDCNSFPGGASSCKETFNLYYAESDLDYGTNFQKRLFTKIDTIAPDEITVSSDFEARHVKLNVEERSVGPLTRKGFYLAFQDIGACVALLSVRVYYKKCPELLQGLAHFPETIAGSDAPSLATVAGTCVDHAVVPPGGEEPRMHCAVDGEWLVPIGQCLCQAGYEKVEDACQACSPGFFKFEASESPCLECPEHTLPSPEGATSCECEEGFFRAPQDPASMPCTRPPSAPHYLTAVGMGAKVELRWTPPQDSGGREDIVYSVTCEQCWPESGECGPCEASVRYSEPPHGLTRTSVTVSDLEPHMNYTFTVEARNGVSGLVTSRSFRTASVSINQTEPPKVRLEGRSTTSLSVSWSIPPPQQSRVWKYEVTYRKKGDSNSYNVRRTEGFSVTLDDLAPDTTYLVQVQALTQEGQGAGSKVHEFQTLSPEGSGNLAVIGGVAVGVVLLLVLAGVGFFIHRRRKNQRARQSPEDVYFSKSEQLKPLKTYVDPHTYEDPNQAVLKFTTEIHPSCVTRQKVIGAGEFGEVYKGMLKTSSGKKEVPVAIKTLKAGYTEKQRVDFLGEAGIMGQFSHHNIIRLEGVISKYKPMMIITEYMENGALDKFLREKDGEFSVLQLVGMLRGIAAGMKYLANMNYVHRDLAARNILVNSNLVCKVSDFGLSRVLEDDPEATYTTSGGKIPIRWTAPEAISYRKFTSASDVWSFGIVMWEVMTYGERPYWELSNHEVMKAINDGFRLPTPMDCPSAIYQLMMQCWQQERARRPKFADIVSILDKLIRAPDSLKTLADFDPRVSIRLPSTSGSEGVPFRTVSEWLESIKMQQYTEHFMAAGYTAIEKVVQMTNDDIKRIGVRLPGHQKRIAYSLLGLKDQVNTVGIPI", "assay": "Kinase panel, radiometric 33P filter binding", "conditions": "read-out: % activity remaining", "description": "as §1"}, "[30]": {"biological_target": "HER4 (Homo sapiens, UniProt Q15303)", "assay": "Kinase panel, radiometric 33P filter binding", "conditions": "read-out: % activity remaining", "description": "as §1"}, "[31]": {"biological_target": "DDR2 (Homo sapiens, UniProt Q16832)", "sequence (Q16832 22-855)": "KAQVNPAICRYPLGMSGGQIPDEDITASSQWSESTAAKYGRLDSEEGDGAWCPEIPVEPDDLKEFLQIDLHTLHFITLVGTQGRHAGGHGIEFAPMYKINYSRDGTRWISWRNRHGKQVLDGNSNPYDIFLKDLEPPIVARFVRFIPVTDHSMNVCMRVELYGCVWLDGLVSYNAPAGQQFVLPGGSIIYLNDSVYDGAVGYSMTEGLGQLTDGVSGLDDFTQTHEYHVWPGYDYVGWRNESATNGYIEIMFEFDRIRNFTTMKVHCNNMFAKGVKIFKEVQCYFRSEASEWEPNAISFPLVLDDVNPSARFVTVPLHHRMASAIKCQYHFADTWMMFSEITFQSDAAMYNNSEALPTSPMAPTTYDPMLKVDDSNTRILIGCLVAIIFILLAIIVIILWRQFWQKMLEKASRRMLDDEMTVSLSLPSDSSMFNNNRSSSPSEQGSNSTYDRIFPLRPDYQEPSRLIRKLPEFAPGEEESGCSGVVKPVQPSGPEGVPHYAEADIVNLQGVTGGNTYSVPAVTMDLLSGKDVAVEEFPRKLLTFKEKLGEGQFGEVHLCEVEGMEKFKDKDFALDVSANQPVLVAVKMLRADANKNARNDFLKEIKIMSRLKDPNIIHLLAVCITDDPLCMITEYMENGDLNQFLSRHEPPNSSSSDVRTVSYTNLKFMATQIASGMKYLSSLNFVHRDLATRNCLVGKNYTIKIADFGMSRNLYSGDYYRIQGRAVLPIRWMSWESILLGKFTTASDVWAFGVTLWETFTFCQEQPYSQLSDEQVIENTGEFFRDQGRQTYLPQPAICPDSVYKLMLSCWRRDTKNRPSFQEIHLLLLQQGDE", "assay": "Kinase panel, radiometric 33P filter binding", "conditions": "read-out: % activity remaining", "description": "as §1"}},
  "data": [
    {"smiles": "FC(F)(F)c1ccccc1-c1nc(NCc2cccs2)c2ccccc2n1", "note": "[Compound 1, NIH-12848, reference compound]", "values": [
      {"measurement": "IC50", "setting": "[1]", "result": "> 100", "unit": "µM"},
      {"measurement": "ΔTm at 63 µM", "setting": "[2]", "result": "0.6 ± 0.3", "unit": "°C"},
      {"measurement": "ΔTm at 63 µM", "setting": "[3]", "result": "7.4 ± 0.6", "unit": "°C"}
    ]},
    {"smiles": "CC(C)c1ccccc1-c1nc(NCc2ccccn2)c2c(ccn2C)n1", "note": "[Compound 40]", "values": [
      {"measurement": "remaining activity at 10 µM", "setting": "[4]", "result": 98, "unit": "%"},
      {"measurement": "remaining activity at 10 µM", "setting": "[5]", "result": 95, "unit": "%"},
      {"measurement": "remaining activity at 10 µM", "setting": "[6]", "result": 109, "unit": "%"},
      {"measurement": "remaining activity at 10 µM", "setting": "[7]", "result": 99, "unit": "%"},
      {"measurement": "remaining activity at 10 µM", "setting": "[8]", "result": 104, "unit": "%"},
      {"measurement": "remaining activity at 10 µM", "setting": "[9]", "result": 102, "unit": "%"},
      {"measurement": "remaining activity at 10 µM", "setting": "[10]", "result": 98, "unit": "%"},
      {"measurement": "remaining activity at 10 µM", "setting": "[11]", "result": 107, "unit": "%"},
      {"measurement": "remaining activity at 10 µM", "setting": "[12]", "result": 93, "unit": "%"},
      {"measurement": "remaining activity at 10 µM", "setting": "[13]", "result": 88, "unit": "%"},
      {"measurement": "remaining activity at 10 µM", "setting": "[14]", "result": 88, "unit": "%"},
      {"measurement": "remaining activity at 10 µM", "setting": "[15]", "result": 100, "unit": "%"},
      {"measurement": "remaining activity at 10 µM", "setting": "[16]", "result": 101, "unit": "%"},
      {"measurement": "remaining activity at 10 µM", "setting": "[17]", "result": 120, "unit": "%"},
      {"measurement": "remaining activity at 10 µM", "setting": "[18]", "result": 98, "unit": "%"},
      {"measurement": "remaining activity at 10 µM", "setting": "[19]", "result": 93, "unit": "%"},
      {"measurement": "remaining activity at 10 µM", "setting": "[20]", "result": 95, "unit": "%"},
      {"measurement": "remaining activity at 10 µM", "setting": "[21]", "result": 115, "unit": "%"},
      {"measurement": "remaining activity at 10 µM", "setting": "[22]", "result": 110, "unit": "%"},
      {"measurement": "remaining activity at 10 µM", "setting": "[23]", "result": 68, "unit": "%"},
      {"measurement": "remaining activity at 10 µM", "setting": "[24]", "result": 90, "unit": "%"},
      {"measurement": "remaining activity at 10 µM", "setting": "[25]", "result": 114, "unit": "%"},
      {"measurement": "remaining activity at 10 µM", "setting": "[26]", "result": 92, "unit": "%"},
      {"measurement": "remaining activity at 10 µM", "setting": "[27]", "result": 94, "unit": "%"},
      {"measurement": "remaining activity at 10 µM", "setting": "[28]", "result": 106, "unit": "%"},
      {"measurement": "remaining activity at 10 µM", "setting": "[29]", "result": 104, "unit": "%"},
      {"measurement": "remaining activity at 10 µM", "setting": "[30]", "result": 112, "unit": "%"},
      {"measurement": "remaining activity at 10 µM", "setting": "[31]", "result": 90, "unit": "%"}
    ]}
  ]
}
